{"source": "PubChem BioAssay AID330", "about": "(DTP/NCI, 2004)", "test_system": "P388 leukemia ip, CD2F1 mice, survival T/C", "assay": "NCI In Vivo Anticancer Drug Screen. Data for tumor model P388 Leukemia (intraperitoneal) in CD2F1 (CDF1) mice", "settings": "endpoint: median survival time, higher = longer survival", "how_it_was_run": "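Mice carrying the transplanted tumor received test compound or vehicle. Survival was recorded in each group, and the value is the treated-group measurement divided by that of the vehicle-treated control group.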", "key": {"[1]": {"settings": "dose: 60.0 mg/kg/injection, schedule: Q01DX005 (ip), vehicle: saline with Tween-80"}, "[2]": {"settings": "dose: 120.0 mg/kg/injection, schedule: Q01DX005 (ip), vehicle: saline with Tween-80"}, "[3]": {"settings": "dose: 240.0 mg/kg/injection, schedule: Q01DX005 (ip), vehicle: saline with Tween-80"}, "[4]": {"settings": "dose: 50.0 mg/kg/injection, schedule: Q01DX005 (ip), vehicle: Klucel (hydroxypropylcellulose) (HPC)"}, "[5]": {"settings": "dose: 100.0 mg/kg/injection, schedule: Q01DX005 (ip), vehicle: Klucel (hydroxypropylcellulose) (HPC)"}, "[6]": {"settings": "dose: 200.0 mg/kg/injection, schedule: Q01DX005 (ip), vehicle: Klucel (hydroxypropylcellulose) (HPC)"}}, "note": "Inconclusive results and toxic doses are left out."}
{"smiles": "O=P(N1CCCCCC1)(N1CC1)N1CC1", "values": [{"measurement": "T/C", "setting": "dose: 0.47 mg/kg/injection, schedule: Q01DX009 (ip), vehicle: saline", "result": "102 % of control"}, {"measurement": "T/C", "setting": "dose: 0.94 mg/kg/injection, schedule: Q01DX009 (ip), vehicle: saline", "result": "108 % of control"}, {"measurement": "T/C", "setting": "dose: 0.94 mg/kg/injection, schedule: Q04DX003 (ip), vehicle: saline", "result": "117 % of control"}, {"measurement": "T/C", "setting": "dose: 1.87 mg/kg/injection, schedule: Q01DX009 (ip), vehicle: saline", "result": "118 % of control"}, {"measurement": "T/C", "setting": "dose: 1.88 mg/kg/injection, schedule: Q01DX009 (ip), vehicle: saline", "result": "118 % of control"}, {"measurement": "T/C", "setting": "dose: 3.75 mg/kg/injection, schedule: Q04DX003 (ip), vehicle: saline", "result": "161 % of control"}, {"measurement": "T/C", "setting": "dose: 7.5 mg/kg/injection, schedule: Q04DX003 (ip), vehicle: saline", "result": "227 % of control"}, {"measurement": "T/C", "setting": "dose: 15.0 mg/kg/injection, schedule: Q04DX003 (ip), vehicle: saline", "result": "165 % of control"}, {"measurement": "T/C", "setting": "dose: 22.0 mg/kg/injection, schedule: Q04DX003 (ip), vehicle: saline", "result": "190 % of control"}, {"measurement": "T/C", "setting": "dose: 30.0 mg/kg/injection, schedule: Q04DX003 (ip), vehicle: saline", "result": "200 % of control"}, {"measurement": "T/C", "setting": "dose: 33.0 mg/kg/injection, schedule: Q04DX003 (ip), vehicle: saline", "result": "259 % of control"}]}
{"smiles": "Nc1nc(NCCCc2ccccc2)c(N=Nc2ccccc2)c(=O)[nH]1", "values": [{"measurement": "T/C", "setting": "[1]", "result": "105 % of control"}, {"measurement": "T/C", "setting": "[2]", "result": "105 % of control"}, {"measurement": "T/C", "setting": "[3]", "result": "105 % of control"}]}
{"smiles": "COc1ccc2c(=O)c(-c3cc4c(cc3OC)OCO4)coc2c1", "values": [{"measurement": "T/C", "setting": "dose: 8.0 mg/kg/injection, schedule: Q01DX005 (ip), vehicle: Klucel (hydroxypropylcellulose) (HPC)", "result": "88 % of control"}, {"measurement": "T/C", "setting": "dose: 16.0 mg/kg/injection, schedule: Q01DX005 (ip), vehicle: Klucel (hydroxypropylcellulose) (HPC)", "result": "86 % of control"}]}
{"smiles": "CNC(=O)NC1NC(=O)N(C)C1=O", "note": "(stereo unspecified)", "values": [{"measurement": "T/C", "setting": "dose: 50.0 mg/kg/injection, schedule: Q01DX009 (ip), vehicle: saline with Tween-80", "result": "100 % of control"}, {"measurement": "T/C", "setting": "dose: 100.0 mg/kg/injection, schedule: Q01DX009 (ip), vehicle: saline with Tween-80", "result": "99 % of control"}, {"measurement": "T/C", "setting": "dose: 200.0 mg/kg/injection, schedule: Q01DX009 (ip), vehicle: saline with Tween-80", "result": "100 % of control"}]}
{"smiles": "Cn1c(=O)[nH]c2c(c1=O)CCCN2", "values": [{"measurement": "T/C", "setting": "dose: 100.0 mg/kg/injection, schedule: Q04DX002 (ip), vehicle: Klucel (hydroxypropylcellulose) (HPC)", "result": "104 % of control"}, {"measurement": "T/C", "setting": "dose: 200.0 mg/kg/injection, schedule: Q04DX002 (ip), vehicle: Klucel (hydroxypropylcellulose) (HPC)", "result": "98 % of control"}, {"measurement": "T/C", "setting": "dose: 400.0 mg/kg/injection, schedule: Q04DX002 (ip), vehicle: Klucel (hydroxypropylcellulose) (HPC)", "result": "98 % of control"}]}
{"smiles": "O=C(OCCn1ncnn1)c1ccc([N+](=O)[O-])cc1", "values": [{"measurement": "T/C", "setting": "[4]", "result": "104 % of control"}, {"measurement": "T/C", "setting": "[5]", "result": "104 % of control"}, {"measurement": "T/C", "setting": "[6]", "result": "95 % of control"}]}
{"smiles": "CCO/C=N/n1c(C(=O)NCCCOC)nc2ccccc2c1=O", "values": [{"measurement": "T/C", "setting": "[4]", "result": "107 % of control"}, {"measurement": "T/C", "setting": "[5]", "result": "94 % of control"}, {"measurement": "T/C", "setting": "[6]", "result": "100 % of control"}]}
{"smiles": "C=C1COC(O)(C(OC)C(O)CC2CC(=O)NC(=O)C2)C1C", "note": "(stereo unspecified)", "values": [{"measurement": "T/C", "setting": "dose: 0.01 mg/kg/injection, schedule: Q01DX009 (ip), vehicle: water", "result": "105 % of control"}, {"measurement": "T/C", "setting": "dose: 0.03 mg/kg/injection, schedule: Q01DX009 (ip), vehicle: water", "result": "104 % of control"}, {"measurement": "T/C", "setting": "dose: 0.06 mg/kg/injection, schedule: Q01DX009 (ip), vehicle: water", "result": "111 % of control"}, {"measurement": "T/C", "setting": "dose: 0.12 mg/kg/injection, schedule: Q01DX009 (ip), vehicle: water", "result": "117 % of control"}]}
{"smiles": "CC(=O)OCC1OC(n2cnc3c(=O)n(S(=O)(=O)c4ccc(C)cc4)cnc32)C(OC(C)=O)C1OC(C)=O", "note": "(stereo unspecified)", "values": [{"measurement": "T/C", "setting": "[1]", "result": "103 % of control"}, {"measurement": "T/C", "setting": "[2]", "result": "106 % of control"}, {"measurement": "T/C", "setting": "[3]", "result": "100 % of control"}]}
{"smiles": "[C-]#[O+].[C-]#[O+].[C-]#[O+].[C-]#[O+].[Mo].c1cnc2c(c1)ccc1cccnc12", "values": [{"measurement": "T/C", "setting": "dose: 6.25 mg/kg/injection, schedule: Q01DX009 (ip), vehicle: Klucel (hydroxypropylcellulose) (HPC)", "result": "100 % of control"}, {"measurement": "T/C", "setting": "dose: 12.5 mg/kg/injection, schedule: Q01DX009 (ip), vehicle: Klucel (hydroxypropylcellulose) (HPC)", "result": "95 % of control"}, {"measurement": "T/C", "setting": "dose: 25.0 mg/kg/injection, schedule: Q01DX009 (ip), vehicle: Klucel (hydroxypropylcellulose) (HPC)", "result": "93 % of control"}, {"measurement": "T/C", "setting": "dose: 50.0 mg/kg/injection, schedule: Q01DX009 (ip), vehicle: Klucel (hydroxypropylcellulose) (HPC)", "result": "95 % of control"}]}
{"smiles": "C/C(=N\\NC(=S)N1CCCCCC1)c1nccnc1C", "values": [{"measurement": "T/C", "setting": "dose: 25.0 mg/kg/injection, schedule: Q01DX005 (ip), vehicle: Klucel (hydroxypropylcellulose) (HPC)", "result": "112 % of control"}, {"measurement": "T/C", "setting": "[4]", "result": "122 % of control"}]}
